From patent publication US20080220103A1, “METHOD FOR TREATING/CONTROLLING/KILLING FUNGI AND BACTERIA ON LIVING ANIMALS” (priority 2005, published 2008)
Converted amounts (≈) assume the structure as drawn.

Columns and labels:
All Yeasts = experiment: Minimum fungicidal concentration, yeasts; type: cell-based
Method: Minimum fungicidal concentration (MFC): The minimum fungicidal concentrations of various agents were determined using the technique described by Canton et al. (Antimicrob Agents Chemother. 2004 8:2477-82). In that method, fungal conidia were collected following growth on potato dextrose agar (PDA) plates and were used to inoculate 96-well plates containing different concentrations of agents. Following incubation at 35° C. for 4 days (for dermatophytes) or 24 hours (for yeast), wells showing no visible growth were cultured to determine the MFC (defined as the lowest concentration of a given agent that kills>99.999% of fungal conidia or spores). The MFC value represents the level of the agent at which spores or conidia were killed.

T. mentagrophytes = experiment: Scanning electron microscopy of treated discs; type: cell-based, Trichophyton mentagrophytes; conditions: for SEM: fungal growth on insole, post-contamination treatment / SEM: fungal growth on insole, pretreatment: insole biopsy disc; for SEM: fungal growth on leather, pretreatment: leather biopsy disc
Method: Scanning electron microscopy (SEM) was used to monitor the ability of agents to eradicate fungal growth on shoe insoles or leather biopsy discs. Pre- and post-treated discs were processed for SEM by the method of Chandra et al. One set of discs was used as a control in which no drug pre- or post-treatment was performed. In addition, one set of biopsy discs was used as blank where no fungal cells or drug were added. Following treatment, discs were fixed with 2% glutaraldehyde for 2 h, and then washed with sodium cacodylate buffer (three times for 10 minutes each). The discs were then treated with 1% osmium tetraoxide (for 1 h at 4° C.) followed by a series of washing with sodium cacodylate buffer, followed by a two times washing with distilled water. Next, the discs were treated with 1% tannic acid washed three times with distilled water, and followed by 1% uranyl acetate with two water washings. The samples were then dehydrated through a series of ethanol solutions (range from 25% (vol/vol) ethanol in distilled water to absolute ethanol). Prepared samples were then sputter coated with Au/Pd (60/40) and viewed with Amray 1000B scanning electron microscope.

T. rubrum [1] = experiment: Pre-treatment insole assay, combination (FIG. 10); type: cell-based, Trichophyton rubrum; conditions: 0.01% synthetic agent, 3% tea tree oil, singly or combined
Method: Pre-treatment assays: To evaluate the ability of different agents to prevent fungal contaminations of shoes, PDA plates were prepared on which 10^4 T. mentagrophytes cells were evenly spread. Next, discs from insoles and leather were treated as follows (with either agent or control vehicle): discs were pretreated with a single spray, spraying for 15 second or 30 second. Other discs were immersed in agent or vehicle for 30 min. Following this treatment, discs were air-dried by placing them in a Petri plate for 1 min. These dried discs were then placed (drug side down) on the seeded PDA plates. Plates were then incubated for 4 days at 30° C. Following incubation, fungal growth was recorded. […] Diameter of the clearance zone (CZD) was measured. The relative activity of different agents and control were assessed. […] To determine whether using combination of synthetic compounds and essential oils will allow the use of low concentrations of synthetic drugs, we tested the ability of combination of 0.01% tolnaftate and 3% tea tree oil to prevent shoe contamination using the pre- and post-treatment insole bioassays described above.

[2] = system: terbinafine-resistant T. rubrum; experiment: MIC against terbinafine-resistant isolates; type: cell-based, Trichophyton rubrum
Method: Minimum Inhibitory Concentration (MIC): Minimum inhibitory concentrations of synthetic and semisynthetic and natural products against dermatophytes were determined using a modification of the Clinical Laboratory Standards Institute (CLSI, formerly National Committee of Clinical Laboratory Standards, NCCLS) M38A standard method for dermatophytes, while MIC of these agents against Candida species were determined using the CLSI M27-A2 methodology. The method used to determine the MIC against bacteria was based on the CLSI document M7-A7.
For dermatophytes, serial dilutions of terbinafine, tolnaftate were prepared in a range of 0.004-2 μg/ml, while for miconazole concentrations ranged between 0.015-8 μg/ml. Finally, for essential oils, the concentrations tested were between 0.03-16 μg/ml. The only exception was tea tree oil where dilutions were prepared in a range of 0.0078-4 μg/ml. The MIC was read at 4 days post inoculation and defined as the lowest concentration of an agent to inhibit 80% of fungal growth as compared to the growth control (Table 2).

T. rubrum [3] = experiment: Post-treatment insole assay, combination (FIG. 10); type: cell-based, Trichophyton rubrum; conditions: 0.01% tolnaftate, 3% tea tree oil, singly or combined
[4] = Trichophyton rubrum, terbinafine-resistant T. rubrum, n = 11

SMILES | MFC Range (All Yeasts) [µg/mL] | SEM: fungal growth on insole, post-contamination treatment (T. mentagrophytes) | SEM: fungal growth on insole, pretreatment (T. mentagrophytes) | SEM: fungal growth on leather, pretreatment (T. mentagrophytes) | effect of pretreatment of insoles on fungal growth (T. rubrum [1]) | MIC ([2]; Trichophyton rubrum, T. rubrum MRL 666) [µg/mL] | MIC ([2]; Trichophyton rubrum, T. rubrum MRL 670) [µg/mL] | MIC ([2]; Trichophyton rubrum, T. rubrum MRL 671) [µg/mL] | MIC ([2]; Trichophyton rubrum, T. rubrum MRL 1386) [µg/mL] | MIC ([2]; Trichophyton rubrum, T. rubrum MRL 1806) [µg/mL] | MIC ([2]; Trichophyton rubrum, T. rubrum MRL 1807) [µg/mL] | MIC ([2]; Trichophyton rubrum, T. rubrum MRL 1808) [µg/mL] | MIC ([2]; Trichophyton rubrum, T. rubrum MRL 1809) [µg/mL] | MIC ([2]; Trichophyton rubrum, T. rubrum MRL 1810) [µg/mL] | MIC ([2]; Trichophyton rubrum, T. rubrum MRL 2499) [µg/mL] | MIC ([2]; Trichophyton rubrum, T. rubrum MRL 2727) [µg/mL] | MIC50 [2, 4] [µg/mL] | MIC90 [2, 4] [µg/mL] | MIC Range ([2]; terbinafine-resistant T. rubrum, n = 11) [µg/mL] | effect of post-contamination treatment of insoles on fungal growth (T. rubrum [3])
Clc1ccc(COC(Cn2ccnc2)c2ccc(Cl)cc2Cl)c(Cl)c1 (centres unmarked) [Miconazole, miconazole] | 0.5 to 2 | – | – | – | – | – | – | – | – | – | – | – | – | – | – | – | – | – | – | –
CN(C/C=C/C#CC(C)(C)C)Cc1cccc2ccccc12 [Terbinafine, terbinafine] | – | complete clearance of fungal growth | completely eradicated fungal growth | completely eradicated fungal growth | did not result in any inhibition of fungal growth | 16 (≈ 54.9 µM) | 16 (≈ 54.9 µM) | 4 (≈ 13.7 µM) | 4 (≈ 13.7 µM) | 4 (≈ 13.7 µM) | 4 (≈ 13.7 µM) | 16 (≈ 54.9 µM) | 16 (≈ 54.9 µM) | 4 (≈ 13.7 µM) | 4 (≈ 13.7 µM) | 2 (≈ 6.86 µM) | 4 (≈ 13.7 µM) | 16 (≈ 54.9 µM) | 2 to 16 | –
Cc1cccc(N(C)C(=S)Oc2ccc3ccccc3c2)c1 [Tolnaftate, tolnaftate] | – | minimally effective | completely eradicated fungal growth | did not completely eradicate dermatophyte growth | – | – | – | – | – | – | – | – | – | – | – | – | – | – | – | did not prevent growth of fungus
